The assay has as its target Neuronal acetylcholine receptor subunit alpha-7 (Homo sapiens, UniProt P36544). The experiment in a line: Positive allosteric modulation of human alpha 7 nAChR expressed in HEK cells co-expressing human RIC3 assessed as increase in acetylcholine-induced channel current at holding potential of -60 mV incubated for 58 secs followed by acetylcholine treatment for 1 sec by patch clamp electrophysiology assay. Format: cell-based. A general note: The patch-clamp technique gives a direct electrical read-out from membranes.

For five compounds, EC50 results are on record in ChEMBL document CHEMBL4251688, “Allosteric Modulators of Nicotinic Acetylcholine Receptors Useful for the Treatment of Cognitive Impairment” (ACS Med Chem Lett, 2018).

Neuronal acetylcholine receptor subunit alpha-7, sequence (P36544 whole entry): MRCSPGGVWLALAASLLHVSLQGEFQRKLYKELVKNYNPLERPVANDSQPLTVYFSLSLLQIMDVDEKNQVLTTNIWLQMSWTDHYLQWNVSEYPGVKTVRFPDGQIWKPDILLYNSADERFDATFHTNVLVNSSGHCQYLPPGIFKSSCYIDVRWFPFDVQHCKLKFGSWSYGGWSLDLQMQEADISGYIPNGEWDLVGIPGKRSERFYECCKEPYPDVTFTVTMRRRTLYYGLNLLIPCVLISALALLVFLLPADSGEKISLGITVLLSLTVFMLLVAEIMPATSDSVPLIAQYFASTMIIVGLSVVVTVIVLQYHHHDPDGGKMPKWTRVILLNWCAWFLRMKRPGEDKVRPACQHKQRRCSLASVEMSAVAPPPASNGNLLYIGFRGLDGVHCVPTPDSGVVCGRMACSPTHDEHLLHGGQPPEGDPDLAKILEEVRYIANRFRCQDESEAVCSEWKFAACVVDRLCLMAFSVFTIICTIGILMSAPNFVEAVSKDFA

With `CC1(C)[C@@H](c2ccc(S(N)(=O)=O)cc2)[C@@H]1c1noc(-c2ccc(F)cc2)n1`, the EC50 was 93 nM.

As for `CC1(C)[C@@H](c2ccc(S(N)(=O)=O)cc2)[C@@H]1c1noc(C2CC(F)(F)C2)n1`, the EC50 was 98 nM.

On to `NS(=O)(=O)c1ccc([C@H]2[C@H](c3noc(-c4ccccc4)n3)C2(F)F)cc1`, for which the EC50 is 83 nM.

For the compound `CC1(C)[C@@H](c2ccc(S(N)(=O)=O)cc2)[C@@H]1c1noc(C2CCCC2)n1`, the EC50 worked out at 69 nM.

Consider `CC(Oc1cccc(Cl)c1)c1nc([C@H]2[C@H](c3ccc(S(N)(=O)=O)cc3)C2(C)C)no1` (stereo not given in full), for which the EC50 stood at 93 nM.

What is called EC50 is the midpoint of the concentration-response curve.
